Test systems include KM12 colon; OVCAR-3 ovarian; OVCAR-8 ovarian; COLO 205 colon; MDA-MB-435; HT29 colon; MDA-MB-231 breast; SK-MEL-28 melanoma; SNB-75 CNS; MDA-N.
Holding throughout (test): NCI anticancer screen, dose series, 48 h

SMILES strings stand for the structures.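 How tested: cells in 96-well plates exposed to compound for 48 hours at five concentrations. GI50: concentration for 50% inhibition of growth. Definition used: TGI = concentration required for complete inhibition of growth.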

This is an account of results in PubChem BioAssay (NCI).

As to `O=Cc1cc(O)c(O)c(/C=N/n2c3ccccc3c3ccccc32)c1`, the TGI with KM12 colon is 84.3 µM; in the assay on OVCAR-3 ovarian, 10.1 µM; with OVCAR-8 ovarian, 18.7 µM; with COLO 205 colon it was 26.3 µM; with MDA-MB-435 it was 28.3 µM; in the assay with HT29 colon, 48.1 µM. In addition, the results for the TGI in the assay on MDA-MB-231 breast, with SK-MEL-28 melanoma and with SNB-75 CNS were 30.2 µM, 42.1 µM and 9.76 µM, respectively.

With `N#CI1OC(C(F)(F)F)(C(F)(F)F)c2ccccc21`, the TGI in the assay on KM12 colon was 35.5 µM; in the assay on OVCAR-3 ovarian, 29.2 µM; in the assay with OVCAR-8 ovarian, 30.5 µM; with COLO 205 colon it was 26.8 µM; in the assay with MDA-MB-435 it was 38.4 µM; with HT29 colon, 40.8 µM. In addition, the TGI in the assay with MDA-MB-231 breast came out at 54.7 µM; in the assay on SK-MEL-28 melanoma, 37.4 µM; in the assay on SNB-75 CNS, 32.4 µM.

For the molecule `Cc1ccc(Nc2ccc(Nc3ccc(C)cc3S(=O)(=O)O)c3c2C(=O)c2ccccc2C3=O)c(S(=O)(=O)O)c1`, the TGI in the assay on KM12 colon, with OVCAR-3 ovarian, in the assay on OVCAR-8 ovarian, in the assay on COLO 205 colon, in the assay on SK-MEL-28 melanoma and in the assay with SNB-75 CNS was greater than 100 µM in each case.

Consider `Cc1oc2c(C)c3oc(=O)cc(C)c3cc2c1CN`, for which the TGI with KM12 colon, in the assay with OVCAR-3 ovarian, in the assay on OVCAR-8 ovarian, with COLO 205 colon, with HT29 colon and with SK-MEL-28 melanoma was greater than 100 µM throughout. For the same molecule, the TGI in the assay with SNB-75 CNS is greater than 100 µM.

As for `COc1ccc(/C=C/C(c2cc(OC)c(OC)c(OC)c2)n2cncn2)cc1O` (stereo not given), the GI50 in the assay with KM12 colon is 0.0405 µM; with COLO 205 colon, 3.66 µM; with HT29 colon it was 3.68 µM; in the assay with MDA-MB-231 breast it was 3.02 µM; with SK-MEL-28 melanoma it was 3.62 µM. The TGI in the assay with KM12 colon was greater than 100 µM; in the assay on COLO 205 colon it was 16.8 µM; in the assay with HT29 colon, 17.2 µM; in the assay with MDA-MB-231 breast it was greater than 100 µM; in the assay with SK-MEL-28 melanoma, greater than 100 µM.

As to `COc1cc([C@@H]2c3cc4c(cc3[C@@H](Nc3ccc(NC(=O)c5cc(NC(=O)c6cc([N+](=O)[O-])cn6C)cn5C)cc3)[C@H]3COC(=O)[C@H]23)OCO4)cc(OC)c1O`, the TGI with KM12 colon is 61.8 µM; with OVCAR-3 ovarian, greater than 100 µM; in the assay on OVCAR-8 ovarian, 89.8 µM; with COLO 205 colon, 17.8 µM; with MDA-N, greater than 100 µM; in the assay on HT29 colon, 98.4 µM. For the same molecule, the TGI in the assay on MDA-MB-231 breast was greater than 64 µM; with SNB-75 CNS it was 37 µM.

Consider `NC(CNc1ccc(O)cc1)C(=O)O` (stereo not given), for which the TGI in the assay on KM12 colon, with OVCAR-3 ovarian, with OVCAR-8 ovarian, in the assay with COLO 205 colon, in the assay on HT29 colon and in the assay on SK-MEL-28 melanoma was greater than 100 µM each time. Besides, in the assay on SNB-75 CNS, the TGI was greater than 100 µM.

In the case of `O=C1OC(C(O)C(O)C(O)CO)C(O)C1O` (stereo not given), the TGI with KM12 colon, with OVCAR-3 ovarian, in the assay with OVCAR-8 ovarian, in the assay with COLO 205 colon, in the assay with MDA-MB-435 and with HT29 colon was greater than 100 µM each time. In addition, the TGI in the assay on MDA-MB-231 breast, with SK-MEL-28 melanoma and in the assay on SNB-75 CNS was greater than 100 µM in each case.

For `CCCN1C(=O)/C(=C(/O)C(=O)OCC)C(c2ccc(OC)c(OC)c2)C1=O` (stereo not given), the TGI was greater than 100 µM with KM12 colon; greater than 66.1 µM in the assay on OVCAR-3 ovarian; greater than 100 µM in the assay with OVCAR-8 ovarian; greater than 100 µM in the assay on COLO 205 colon; greater than 100 µM in the assay on HT29 colon; greater than 100 µM with SK-MEL-28 melanoma. The same molecule showed a TGI in the assay with SNB-75 CNS greater than 100 µM.

`COC1CCC(n2c([C@@H]3CCCC(=O)N3c3ccc(F)c(F)c3)nc3cc(-c4c(C)noc4C)ccc32)CC1` (stereo not given in full): the GI50 in the assay on KM12 colon is 14 µM; with OVCAR-3 ovarian, 10.5 µM; in the assay with OVCAR-8 ovarian it was 10.2 µM; with COLO 205 colon it was 2.16 µM; with MDA-MB-435, 8.01 µM; with HT29 colon, 2.54 µM. The GI50 in the assay on MDA-MB-231 breast is 8.46 µM; in the assay with SK-MEL-28 melanoma, 11.8 µM; in the assay on SNB-75 CNS, 0.0108 µM. Further, the TGI was 30.4 µM in the assay with KM12 colon; 32.3 µM in the assay with OVCAR-3 ovarian; 40.8 µM in the assay on OVCAR-8 ovarian; 17.8 µM in the assay with COLO 205 colon; 82.7 µM with MDA-MB-435; 25.2 µM in the assay with HT29 colon. Further, the TGI stood at 26 µM in the assay with MDA-MB-231 breast, 28.1 µM in the assay on SK-MEL-28 melanoma and 0.961 µM with SNB-75 CNS.

With `COC(=O)C(N)CCCC(N)C(=O)NC(C)C(=O)NC(CCC(=O)NCCCNc1ccc([N+](=O)[O-])c2[nH]c3ccccc3c(=O)c12)C(N)=O` (stereo not given), the TGI in the assay with KM12 colon was 19.1 µM; with OVCAR-3 ovarian, 24.9 µM; with OVCAR-8 ovarian it was 13.9 µM; in the assay on COLO 205 colon it was 15.2 µM; in the assay on MDA-MB-435 it was 17.6 µM; in the assay with MDA-MB-231 breast it was 28.8 µM. Further, the TGI in the assay with SK-MEL-28 melanoma worked out at 22 µM; with SNB-75 CNS it was 21.6 µM.

In the case of `Cc1cnc2[nH]c(-c3cccc(Cl)c3)cc(=O)c2c1`, the TGI in the assay on KM12 colon is greater than 100 µM; in the assay on OVCAR-3 ovarian it was 0.0755 µM; with OVCAR-8 ovarian, greater than 100 µM; with COLO 205 colon, greater than 37.1 µM; in the assay with MDA-MB-231 breast it was 1.46 µM; in the assay with SK-MEL-28 melanoma, greater than 100 µM. In addition, the TGI in the assay with SNB-75 CNS stood at 36.2 µM.

As to `Clc1ccc(-c2nn3c(C45CC6CC(CC(C6)C4)C5)nnc3s2)cc1`, the TGI in the assay on KM12 colon, in the assay with OVCAR-3 ovarian, in the assay with COLO 205 colon, with MDA-MB-435, in the assay with HT29 colon and with MDA-MB-231 breast was greater than 100 µM in each case. The TGI with SK-MEL-28 melanoma and with SNB-75 CNS was greater than 100 µM throughout.

`CC(CC(C)(C)[N+](C)(C)C)[N+](C)(C)C` (stereo not given): the TGI in the assay on KM12 colon, in the assay with OVCAR-3 ovarian, in the assay on OVCAR-8 ovarian, in the assay with COLO 205 colon, with MDA-N and in the assay with HT29 colon was greater than 100 µM in each case. For the same molecule, the TGI in the assay with SK-MEL-28 melanoma and in the assay on SNB-75 CNS was greater than 100 µM in each case.

Turning to `CCCCNCC(O)c1cc(-c2ccc(C(F)(F)F)cc2)nc(-c2ccc(C(F)(F)F)cc2)c1` (stereo not given), the GI50 with KM12 colon is 1.81 µM; with OVCAR-3 ovarian, 1.98 µM; in the assay on HT29 colon it was 1.84 µM; with SK-MEL-28 melanoma, 2.08 µM; in the assay on SNB-75 CNS, 1.91 µM. Besides, the TGI in the assay with KM12 colon stood at 3.6 µM; in the assay on OVCAR-3 ovarian it was 3.66 µM; with HT29 colon, 3.62 µM; in the assay on SK-MEL-28 melanoma it was 3.81 µM; with SNB-75 CNS, 3.6 µM.

As to `C/C(=C/c1c(C)[nH]c(=O)[nH]c1=O)C(=O)O`, the TGI in the assay on KM12 colon, in the assay on OVCAR-3 ovarian, in the assay on OVCAR-8 ovarian, in the assay with COLO 205 colon, in the assay on HT29 colon and with SK-MEL-28 melanoma was greater than 1380 µM in each case. The TGI with SNB-75 CNS is greater than 1380 µM. In addition, the GI50 with OVCAR-8 ovarian was greater than 1380 µM.

Take `CC(C)(Oc1ccc(C(=O)c2ccc(Cl)cc2)cc1Cl)C(=O)N1CCN(c2ccccc2)CC1`: the TGI in the assay on KM12 colon, in the assay on OVCAR-3 ovarian, in the assay on OVCAR-8 ovarian, in the assay on HT29 colon and with SK-MEL-28 melanoma was greater than 100 µM in each case.

For the molecule `COc1cc(-c2coc3c(OC)c(OC4OC(COC5OC(C)C(O)C(O)C5O)C(O)C(O)C4O)c(OC)c(O)c3c2=O)cc(C)c1O` (stereo not given), the TGI with KM12 colon was 29.3 µM; in the assay with OVCAR-3 ovarian, 47.2 µM; in the assay with OVCAR-8 ovarian, greater than 100 µM; in the assay with COLO 205 colon it was 34.9 µM; in the assay on MDA-MB-435, 75.2 µM; in the assay on HT29 colon, 43.5 µM. For the same molecule, the TGI is greater than 100 µM with MDA-MB-231 breast, 34.4 µM with SK-MEL-28 melanoma and 69.6 µM in the assay with SNB-75 CNS.

As for `COc1ccc(N2C(=O)C3c4[nH]c5ccccc5c4C4CCC(C(C)(C)C)CC4C3C2=O)cc1OC` (stereo not given), the TGI with OVCAR-8 ovarian is 33.9 µM; in the assay on COLO 205 colon it was greater than 100 µM; in the assay on HT29 colon, greater than 100 µM; in the assay with SK-MEL-28 melanoma it was greater than 100 µM; with SNB-75 CNS it was 32.5 µM.

On to `COc1c(Cl)c(Cl)c(OC)c2c1C(=O)C=CC2=O`, for which the TGI was determined as 32.2 µM with KM12 colon; 31.6 µM in the assay with OVCAR-3 ovarian; 32.1 µM in the assay with OVCAR-8 ovarian; 31.7 µM in the assay on COLO 205 colon; 87.2 µM in the assay on HT29 colon; 34.7 µM with SK-MEL-28 melanoma. Also, in the assay on SNB-75 CNS, the TGI was 80 µM.

Take `Oc1ccccc1C=Nc1ccccc1N=Cc1ccccc1O`: the TGI with KM12 colon, in the assay with OVCAR-3 ovarian, in the assay with OVCAR-8 ovarian, in the assay on COLO 205 colon, in the assay with HT29 colon and in the assay with SK-MEL-28 melanoma was greater than 100 µM in each case.

For the molecule `CCOC(=O)CN(Cc1ccccc1)Cc1c(C(=O)c2ccccc2)c2ccccc2n1C(=O)c1ccccc1`, the TGI in the assay on KM12 colon, with OVCAR-3 ovarian, in the assay on OVCAR-8 ovarian, with COLO 205 colon, in the assay on HT29 colon and in the assay with SK-MEL-28 melanoma was greater than 100 µM in each case. Also, the TGI in the assay on SNB-75 CNS was greater than 100 µM.

Regarding `COc1cc(C(CC(OC)OC)=C(C#N)C#N)cc(OC)c1OC`, the TGI in the assay on KM12 colon was 60.5 µM; in the assay with OVCAR-3 ovarian, 73 µM; in the assay on OVCAR-8 ovarian, 73 µM; with COLO 205 colon, 26.6 µM; in the assay with HT29 colon it was 73.4 µM; with SK-MEL-28 melanoma it was greater than 100 µM. Further, the TGI in the assay on SNB-75 CNS was 82.2 µM.
